Laboratory results: ChEMBL document CHEMBL5154644, “Design, Synthesis, and Structure-Activity Relationship Optimization of Pyrazolopyrimidine Amide Inhibitors of Phosphoinositide 3-Kinase γ (PI3Kγ)” (J Med Chem, 2022)

Legend:
[1] = Hepatic clearance in Sprague-Dawley rat by LC-MS/MS analysis; assay type: ADME; conditions: in vivo
[2] = biological target: T1, Phosphatidylinositol 4,5-bisphosphate 3-kinase catalytic subunit gamma isoform (Homo sapiens, UniProt P48736); test: Inhibition of PI3Kgamma (unknown origin) in […] stimulated human THP-1 cells assessed as reduction in Akt phosphorylation level at Ser473 residue preincubated for 60 mins followed by rhMCP-1 stimulation and measured after 2 mins by AlphaLisa assay; assay type: cell-based
T1 sequence (P48736 whole entry, canonical isoform): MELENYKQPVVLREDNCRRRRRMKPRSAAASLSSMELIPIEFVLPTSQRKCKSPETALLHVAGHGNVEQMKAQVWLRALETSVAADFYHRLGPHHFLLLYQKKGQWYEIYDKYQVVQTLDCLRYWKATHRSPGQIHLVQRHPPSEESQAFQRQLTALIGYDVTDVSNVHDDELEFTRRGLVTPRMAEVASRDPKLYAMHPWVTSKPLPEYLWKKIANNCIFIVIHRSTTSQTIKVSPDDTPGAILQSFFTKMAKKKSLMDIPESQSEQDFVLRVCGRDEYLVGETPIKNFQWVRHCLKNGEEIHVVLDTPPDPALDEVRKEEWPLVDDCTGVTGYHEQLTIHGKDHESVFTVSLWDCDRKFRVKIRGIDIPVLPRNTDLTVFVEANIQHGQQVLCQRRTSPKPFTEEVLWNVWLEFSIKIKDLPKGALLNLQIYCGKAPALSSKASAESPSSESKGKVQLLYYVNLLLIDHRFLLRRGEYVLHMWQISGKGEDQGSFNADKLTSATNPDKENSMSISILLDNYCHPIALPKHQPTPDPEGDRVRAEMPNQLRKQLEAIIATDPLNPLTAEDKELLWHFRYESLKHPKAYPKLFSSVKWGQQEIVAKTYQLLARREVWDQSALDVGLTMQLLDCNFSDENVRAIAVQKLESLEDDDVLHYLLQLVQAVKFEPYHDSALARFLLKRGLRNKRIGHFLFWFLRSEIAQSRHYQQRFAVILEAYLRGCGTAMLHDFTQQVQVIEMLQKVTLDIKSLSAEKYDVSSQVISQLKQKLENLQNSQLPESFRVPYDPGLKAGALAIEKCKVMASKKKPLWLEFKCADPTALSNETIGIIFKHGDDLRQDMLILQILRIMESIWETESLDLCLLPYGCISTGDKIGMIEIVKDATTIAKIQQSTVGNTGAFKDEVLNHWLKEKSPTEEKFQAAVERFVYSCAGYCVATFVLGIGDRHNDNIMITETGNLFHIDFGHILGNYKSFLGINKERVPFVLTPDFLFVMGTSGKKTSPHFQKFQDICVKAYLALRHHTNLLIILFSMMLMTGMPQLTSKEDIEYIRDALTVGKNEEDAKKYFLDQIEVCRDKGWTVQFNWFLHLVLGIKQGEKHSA

[3] = biological target: T1, Phosphatidylinositol 4,5-bisphosphate 3-kinase catalytic subunit gamma isoform; test: Inhibition of PI3Kgamma (unknown origin) using PIP2 as substrate preincubated for 1 hr followed by substrate addition and measured after 60 mins in presence of ATP by ADP-glo assay
[4] = Metabolic stability in human hepatocytes assessed as intrinsic clearance per 10^6 cells at 0.5 uM by LC-MS/MS analysis; assay type: ADME, cell-based, Hepatocyte; conditions: read-out: CLH
[5] = Metabolic stability in rat hepatocyte assessed as intrinsic clearance per 10^8 cells at 0.5 uM by LC-MS/MS analysis; assay type: ADME, cell-based; conditions: hepatocytes
[6] = biological target: Phosphatidylinositol 4,5-bisphosphate 3-kinase catalytic subunit alpha isoform (Homo sapiens, UniProt P42336); test: Inhibition of PI3Kalpha (unknown origin) using PIP2 as substrate preincubated for 1 hr followed by substrate addition and measured after 60 mins in presence of ATP by ADP-glo assay
Phosphatidylinositol 4,5-bisphosphate 3-kinase catalytic subunit alpha isoform, sequence (P42336 whole entry, canonical isoform): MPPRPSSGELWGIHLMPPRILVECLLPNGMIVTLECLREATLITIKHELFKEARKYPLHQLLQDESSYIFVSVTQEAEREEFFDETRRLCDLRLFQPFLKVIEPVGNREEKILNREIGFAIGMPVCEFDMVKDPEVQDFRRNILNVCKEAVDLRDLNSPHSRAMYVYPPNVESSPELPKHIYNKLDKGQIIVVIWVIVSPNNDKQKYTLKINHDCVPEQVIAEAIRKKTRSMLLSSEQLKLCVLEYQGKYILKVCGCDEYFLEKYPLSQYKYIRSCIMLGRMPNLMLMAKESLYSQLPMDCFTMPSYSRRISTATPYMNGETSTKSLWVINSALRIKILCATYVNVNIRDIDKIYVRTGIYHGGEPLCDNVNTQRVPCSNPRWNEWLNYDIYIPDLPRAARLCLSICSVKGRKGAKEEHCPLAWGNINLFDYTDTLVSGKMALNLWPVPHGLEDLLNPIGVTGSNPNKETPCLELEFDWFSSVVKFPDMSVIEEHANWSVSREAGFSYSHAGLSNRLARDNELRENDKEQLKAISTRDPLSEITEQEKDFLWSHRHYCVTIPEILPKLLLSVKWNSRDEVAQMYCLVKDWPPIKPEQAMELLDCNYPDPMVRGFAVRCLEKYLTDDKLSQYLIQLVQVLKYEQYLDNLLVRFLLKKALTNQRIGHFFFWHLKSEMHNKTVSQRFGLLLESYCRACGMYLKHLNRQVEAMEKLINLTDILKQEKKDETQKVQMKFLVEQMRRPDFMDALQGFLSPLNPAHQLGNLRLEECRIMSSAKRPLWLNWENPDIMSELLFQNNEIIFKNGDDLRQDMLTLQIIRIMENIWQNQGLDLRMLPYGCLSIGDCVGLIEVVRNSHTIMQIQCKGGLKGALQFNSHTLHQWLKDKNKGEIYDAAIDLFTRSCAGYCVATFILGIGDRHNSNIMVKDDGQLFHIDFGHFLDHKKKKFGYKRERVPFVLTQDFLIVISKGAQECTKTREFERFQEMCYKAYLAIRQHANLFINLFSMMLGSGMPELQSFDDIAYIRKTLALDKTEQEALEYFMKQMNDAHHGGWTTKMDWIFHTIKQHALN

[7] = biological target: T2, Phosphatidylinositol 4,5-bisphosphate 3-kinase catalytic subunit delta isoform (Homo sapiens, UniProt O00329); test: Inhibition of PI3Kdelta (unknown origin) using PIP2 as substrate preincubated for 1 hr followed by substrate addition and measured after 60 mins in presence of ATP by ADP-glo assay
T2 sequence (O00329 whole entry): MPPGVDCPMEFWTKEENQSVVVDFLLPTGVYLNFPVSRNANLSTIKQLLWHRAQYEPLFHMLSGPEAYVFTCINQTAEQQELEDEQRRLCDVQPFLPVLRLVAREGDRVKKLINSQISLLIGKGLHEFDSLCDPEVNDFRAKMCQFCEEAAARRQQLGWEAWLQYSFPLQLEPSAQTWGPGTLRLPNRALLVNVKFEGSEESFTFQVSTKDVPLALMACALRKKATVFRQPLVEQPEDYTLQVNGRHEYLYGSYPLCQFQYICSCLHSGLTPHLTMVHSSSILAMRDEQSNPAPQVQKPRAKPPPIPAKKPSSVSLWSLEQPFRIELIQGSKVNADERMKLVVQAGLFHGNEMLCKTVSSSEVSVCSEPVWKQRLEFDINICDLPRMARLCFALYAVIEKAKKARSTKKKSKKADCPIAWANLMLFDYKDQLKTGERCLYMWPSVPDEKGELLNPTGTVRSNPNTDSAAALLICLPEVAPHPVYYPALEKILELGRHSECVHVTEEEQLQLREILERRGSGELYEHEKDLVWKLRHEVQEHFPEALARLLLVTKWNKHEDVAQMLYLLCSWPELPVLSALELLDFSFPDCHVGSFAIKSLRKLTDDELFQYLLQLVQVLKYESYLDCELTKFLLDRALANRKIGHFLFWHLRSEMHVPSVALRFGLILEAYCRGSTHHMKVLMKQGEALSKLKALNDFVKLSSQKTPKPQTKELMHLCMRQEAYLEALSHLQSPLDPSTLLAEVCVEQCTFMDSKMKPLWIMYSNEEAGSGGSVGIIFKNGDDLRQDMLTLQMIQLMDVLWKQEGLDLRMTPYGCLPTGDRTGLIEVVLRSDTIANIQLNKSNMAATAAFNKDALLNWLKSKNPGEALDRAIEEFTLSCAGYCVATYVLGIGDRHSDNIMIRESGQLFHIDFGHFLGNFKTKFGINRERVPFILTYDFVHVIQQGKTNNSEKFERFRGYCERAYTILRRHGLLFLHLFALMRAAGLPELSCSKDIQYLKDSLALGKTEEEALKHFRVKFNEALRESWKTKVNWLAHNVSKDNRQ

[8] = organism: Homo sapiens; test: Selectivity ratio of IC50 for inhibition of PI3Kalpha (unknown origin) to IC50 for inhibition of PI3Kgamma (unknown origin)
[9] = organism: Homo sapiens; test: Selectivity ratio of IC50 for inhibition of PI3Kdelta (unknown origin) to IC50 for inhibition of PI3Kgamma (unknown origin)
[10] = biological target: CYP3A4 (Homo sapiens, UniProt P08684); test: in vitro; conditions: human liver microsomes, probe midazolam
CYP3A4, sequence (P08684 whole entry): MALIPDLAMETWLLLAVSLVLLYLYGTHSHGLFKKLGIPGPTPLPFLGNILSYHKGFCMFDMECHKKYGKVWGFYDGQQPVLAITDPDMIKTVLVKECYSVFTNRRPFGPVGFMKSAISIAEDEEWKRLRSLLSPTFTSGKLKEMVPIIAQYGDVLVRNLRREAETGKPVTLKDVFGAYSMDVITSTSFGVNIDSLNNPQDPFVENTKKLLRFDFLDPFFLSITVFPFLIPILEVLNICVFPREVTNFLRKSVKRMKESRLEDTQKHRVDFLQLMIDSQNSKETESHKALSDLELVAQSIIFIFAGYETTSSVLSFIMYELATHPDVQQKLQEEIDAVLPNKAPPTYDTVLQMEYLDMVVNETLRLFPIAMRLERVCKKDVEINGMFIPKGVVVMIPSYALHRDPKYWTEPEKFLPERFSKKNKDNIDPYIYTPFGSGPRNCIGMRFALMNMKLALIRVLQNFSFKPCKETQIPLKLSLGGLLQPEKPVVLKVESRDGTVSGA
Description: Time dependent inhibition of CYP3A4 in human liver microsomes at 10 uM using midazolam as substrate preincubated for 30 mins in presence of NADPH by LC/MS/MS analysis relative to control

SMILES | CLH [1] [mL/min/kg] | IC50 [2] [µM] | IC50 [3] [µM] | hepatocyte CLint at 0.5 µM [4] [µL/min/1e6 cells] | hepatocyte intrinsic clearance [5] [µL/min] | IC50 [6] [µM] | IC50 [7] [µM] | Ratio IC50 [8] | Ratio IC50 [9] | inhibition at 30 min, 10 µM [10] [%]
Cc1cc(-c2ccn3nc(N)c(C(=O)N[C@@H]4CC[C@@H](O)C4)c3n2)cc2c1C(=O)N([C@@H](C)C1CC1)C2 | 71.7 | 0.082 | 0.0042 | 3.26 | 24.6 | 0.14 | 0.123 | 33 | 29 | 14
C[C@@H](C1CC1)N1Cc2cc(-c3ccn4nc(N)c(C(=O)NC5CC5)c4n3)cc(C(F)(F)F)c2C1=O | 5 | 0.103 | 0.0036 | < 1.2 | < 1.2 | 1.58 | 1.95 | 443 | 547 | 7
Cc1cc(-c2ccn3nc(N)c(C(=O)N[C@@H](CO)C4CC4)c3n2)cc2c1C(=O)N([C@@H](C)C1CC1)C2 | 8.3 | 0.133 | 0.0029 | 2.03 | 1.31 | > 10 | > 10 | > 3440 | > 3440 | 7
Cc1cc(-c2ccn3nc(N)c(C(=O)N[C@H]4C[C@H](O)C4)c3n2)cc2c1C(=O)N([C@@H](C)C1CC1)C2 | 40 |  |  | 11.3 | 15.7 |  |  |  |  | 14
Cc1cc(-c2ccn3nc(N)c(C(=O)Nc4cnn(C)c4)c3n2)cc2c1C(=O)N([C@@H](C)C1CC1)C2 | 43.3 | 0.127 | 0.0034 | 13.4 | 12.2 |  |  |  |  | 49
Cc1cc(-c2ccn3nc(N)c(C(=O)N[C@H]4CC[C@H](O)CC4)c3n2)cc2c1C(=O)N([C@@H](C)C1CC1)C2 | 50 | 0.106 | 0.0012 | 4.76 | 10.8 | 0.188 | 0.061 | 156 | 51 | 26
Cc1cc(-c2ccn3nc(N)c(C(=O)N[C@H]4CNC(=O)C4)c3n2)cc2c1C(=O)N([C@@H](C)C1CC1)C2 | 73.3 | 0.11 | 0.0018 | < 1.2 | 2.73 | 0.995 | 0.769 | 568 | 439 | 4
CCS(=O)(=O)c1cc(-c2ccn3nc(N)c(C(=O)NC4CC4)c3n2)cc2c1C(=O)N([C@@H](C)C1CC1)C2 | 68.3 | 0.067 | 0.0048 | 2.03 | < 1.2 | 0.808 | 0.835 | 170 | 175 | 16
C[C@@H](C1CC1)N1Cc2cc(-c3ccn4nc(N)c(C(=O)NC5CC5)c4n3)cc(S(C)(=O)=O)c2C1=O | 88.3 | 0.043 | 0.0024 | < 1.2 | < 1.2 | 0.351 | 0.56 | 148 | 236 | 4
Cc1cc(-c2ccn3nc(N)c(C(=O)N[C@H](C)CO)c3n2)cc2c1C(=O)N([C@@H](C)C1CC1)C2 | 15 | 0.186 | 0.0035 | 1.31 | < 1.2 | 0.713 | 1.28 | 205 | 415 | 19
